“Also recorded” adds a separate entry of the source. Like-named read-outs stand apart in the source and are kept apart here.
What was measured:
[1] = cited from earlier work
[2] = tested on: liver punch hole injuries in pigs; conditions: cited from earlier work; for inflammatory cell infiltration due to the SAP: short-term study
[3] = tested on: oozing wounds in the walls of the stomach and/or duodenum of pigs; conditions: endoscopic administration, no control group; cited from earlier work
DSS-induced colitis mice = assay: Efficacy in DSS-induced colitis (DAI, colon weight/length, MPO, histology, immune cells); assay type: in vivo
Excerpt: An additional benefit of this nanocomposite system is that it can be dried and then reconstituted in vivo or under in vivo-like conditions without substantial alteration of its properties. The dried nanocomposite offers the advantage of a long-duration storage, but, perhaps more importantly, the dried nanocomposite powder can be encapsulated in various types of capsules known in the art for a controlled and localized delivery in precise part of the GIT with systems differentiated in the basis of GIT transit times, pH changes, bacterial enzymes, mucoadhesion, nanotechnologies and disease-associated triggers. One such capsule, designed for release of hydrated RADA16 hydrogel doped with a macromolecular dye, fluorescein isothiocyanate—dextran 4 kDa (FD4), mostly in the large intestine, has been described by Eleftheriadis et al. (Pharm. Development Tech. 25(4): 1-23 (2020)). That reference discloses a pH sensitive hydroxypropyl methylcellulose-phthalate (HPMCP)-based 3D-printed capsule. Other encapsulation materials suited to the present invention include poly(meth) acrylate polymers and members of the Eudragit family (Chu, J. N. and Traverso, G., Foundations of gastrointestinal-based drug delivery and future developments, Nature Reviews: Gastroenterology & Hepatology (2021) doi: 10.1038/s41575-021-00539-w). The present invention is based, at least, on the following findings/parameters: • 1. A nanocomposite based on the physical mixture of a preformed nanosystem (namely nanoemulsion, NE) loaded with a drug intended for the treatment of IBD, and a preformed self-assembling-peptide ([…])-based hydrogel (PURASTAT) was created at different concentrations of SAP. • 2. The creation of nanocomposites characterized by two different concentrations, led to the development of systems with different structural properties, leading to differences in the drug-release behaviours. • 3. […] The use of nanocomposite to test the therapeutic efficacy of the drug on an IBD-mouse model brought results based on different technique, detailed herein. • 5. Certain disease factors were improved by administration of PS hydrogel/NE mixture alone, even in the absence of any active ingredients. Disease activity index (DAI) score, used to evaluate the DSS-induced colitis. […] For each parameter a score from 0 to 4 was attributed and afterwards divided by three, resulting in the total DAI score ranging from 0 (unaffected) to 4 (severe colitis) (Gonçalves, F. da C., Schneider, N., H. M.-A. S. & 2013, U. Characterization of Acute Murine Dextran Sodium Sulfate (DSS) Colitis: Severity of Inflammation is Dependent on the DSS Molecular Weight and Concentration. Acta Sci. Vet. 41, 1-9 (2013)). Colon length and weight, which is often reduced in cases of inflammation (Biton, I. E. et al. Assessing Mucosal Inflammation in a DSS-Induced Colitis Mouse Model by MR Colonography. Tomogr. (Ann Arbor, Mich.) 4, 4-13 (2018)). The activity of the enzyme myeloperoxidase (MPO), which is a direct indicator of neutrophils infiltration into the colonic mucosa, and thus an important marker of inflammation (Hansberry, D. R., Shah, K., Agarwal, P. & Agarwal, N. Fecal Myeloperoxidase as a Biomarker for Inflammatory Bowel Disease. Cureus 9, (2017)). Histomorphologic evaluation by HPS stain (hematoxylin phloxine saffron stain), similar to H&E. HPS can differentiate between the most common connective tissue (collagen) and muscle and cytoplasm by staining the former yellow and the latter two pink, unlike an H&E stain, which stains all three pink. Immunohistochemistry for the detection of CD45 positive cells.
Efficacy of drug-loaded nanocomposites compared to a variety of controls was tested using mice of the same strain used in Example 5. Based on the results from the Stage 1 in vivo studies already described, all mice (except for the G1 healthy control group) were given 3% v/v DSS in drinking water for 4 days. After 4 days all mice were given normal drinking water (i.e., no DSS). […]

## IEIKIEIKIEIKI [IEIK13]
[1]; 1% in water
  storage modulus G′: ~700 Pa
[2]; compared to RADA16
  hemostasis: statistically significant improvement
[2]
  inflammatory cell infiltration due to the SAP: absence
[3]
  hemostasis: hemostasis was achieved in both heparinized and non-heparinized animals

## KLDLKLDLKLDL [KLD12]
[1]; 1.5% in water
  storage modulus G′: about 350 Pa

## C[C@@H]1CCN(C(=O)CC#N)C[C@@H]1N(C)c1ncnc2[nH]ccc12 [TFC, Tofacitinib]
DSS-induced colitis mice; indicator of neutrophil infiltration
  Myeloperoxidase (MPO) activity in colonic tissue: slight improvement
DSS-induced colitis mice; mouse, in vivo
  Th2 or Treg populations: did not affect
  infiltration of lymphocytes / CD45+ cells: reduced infiltration of lymphocytes
  proportion of Th1 and Th17 proinflammatory populations: significantly reduced
  total amount of T cells (CD3+): strongly reduced
DSS-induced colitis mice; sacrifice at day 10, relative to G2 untreated IBD mice
  colon weight/colon length ratio (g/cm): statistically significant improvement; also recorded: significantly prevented
DSS-induced colitis mice; with respect to G2
  epithelium and muscularis structure / architecture (histology): considerable amelioration

## Ac-RADARADARADARADA-CONH2 [RADA16]
[1]; 2.5% in water
  storage modulus G′: about 350 Pa
[2]
  inflammatory cell infiltration due to the SAP: absence

From US20230381185A1, “NOVEL FORMULATIONS FOR ORAL ADMINISTRATION OF THERAPEUTIC AGENTS TO THE GASTROINTESTINAL TRACT” (3-D Matrix, Ltd., priority 2022, published 2023)
